Legend:
Assay type in all cases: functional
P388 [1] = experiment: Antileukemic activity against mouse P388 cells allografted in mouse assessed as increase in host survival at 0.5 mg/kg relative to control
P388 [2] = experiment: Antileukemic activity against mouse P388 cells allografted in mouse assessed as increase in host survival at 8 mg/kg relative to control
P388 [3] = experiment: Antileukemic activity against mouse P388 cells allografted in mouse assessed as increase in host survival at 4 mg/kg relative to control
P388 [4] = experiment: Antileukemic activity against mouse P388 cells allografted in mouse assessed as increase in host survival at 2 mg/kg relative to control
P388 [5] = experiment: Antileukemic activity against mouse P388 cells allografted in mouse assessed as increase in host survival at 1 mg/kg relative to control
P388 [6] = experiment: Antileukemic activity against mouse P388 cells allografted in mouse assessed as increase in host survival at 0.25 mg/kg relative to control
P388 [7] = experiment: Antileukemic activity against mouse P388 cells allografted in mouse assessed as increase in host survival at 5 mg/kg relative to control
P388 [8] = experiment: Antileukemic activity against mouse P388 cells allografted in mouse assessed as increase in host survival at 10 mg/kg relative to control
P388 [9] = experiment: Antileukemic activity against mouse P388 cells allografted in mouse assessed as increase in host survival at 2.5 mg/kg relative to control
P388 [10] = experiment: Antileukemic activity against mouse P388 cells allografted in mouse assessed as increase in host survival at 1.25 mg/kg relative to control

| SMILES | T/C (P388 [1]) [%] | T/C (P388 [2]) [%] | T/C (P388 [3]) [%] | T/C (P388 [4]) [%] | T/C (P388 [5]) [%] | T/C (P388 [6]) [%] | T/C (P388 [7]) [%] | T/C (P388 [8]) [%] | T/C (P388 [9]) [%] | T/C (P388 [10]) [%] |
| --- | --- | --- | --- | --- | --- | --- | --- | --- | --- | --- |
| CC(=O)O[C@@H]1C(=O)C=C(C)[C@@H]2[C@@H](OC(=O)C=C(C)C)[C@H]3OC(=O)C[C@H]4[C@@H](C)[C@@H](O)[C@]5(O)OC[C@]34[C@H]5[C@@]12C | 118 | 142 | 142 | 132 | 121 | – | – | – | – | – |
| CC(C)=CC(=O)O[C@@H]1[C@H]2C(C)=CC(=O)[C@H](O)[C@]2(C)[C@H]2[C@]3(O)OC[C@@]24[C@@H]1OC(=O)C[C@H]4[C@@H](C)[C@H]3O | 161 | – | – | 191 | 198 | 145 | – | – | – | – |
| CC(=O)OC[C@]12[C@@H]3OC(=O)C[C@H]1[C@@H](C)[C@@H](OC(C)=O)C(=O)[C@@H]2[C@@]1(C)[C@H](OC(C)=O)C(=O)C=C(C)[C@@H]1[C@H]3OC(=O)C=C(C)C | 100 | 102 | 101 | 102 | 97 | – | – | – | – | – |
| CC(=O)O[C@@H]1[C@H](C)[C@@H]2CC(=O)O[C@@H]3[C@H](OC(=O)C=C(C)C)[C@H]4C(C)=CC(=O)[C@@H](OC(C)=O)[C@]4(C)[C@H]4[C@@]1(O)OC[C@@]342 | – | – | – | – | – | – | 107 | 107 | 107 | 104 |
